The assay has as its system P388 leukemia ip, CD2F1 mice, survival T/C. Kind of assay: NCI In Vivo Anticancer Drug Screen. Data for tumor model P388 Leukemia (intraperitoneal) in CD2F1 (CDF1) mice. The following applies: endpoint: median survival time, higher = longer survival. Summed up:
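Mice carrying the transplanted tumor received test compound or vehicle. Survival was recorded in each group, and the value is the treated-group measurement divided by that of the vehicle-treated control group.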

Where [1] appears, read: dose: 50.0 mg/kg/injection, schedule: Q01DX009 (ip), vehicle: saline.
The mark [2] stands for this setting: dose: 100.0 mg/kg/injection, schedule: Q01DX009 (ip), vehicle: saline with Tween-80.
[3] abbreviates: dose: 100.0 mg/kg/injection, schedule: Q01DX009 (ip), vehicle: saline.
The mark [4] stands for this setting: dose: 200.0 mg/kg/injection, schedule: Q01DX009 (ip), vehicle: saline with Tween-80.
Where [5] appears, read: dose: 3.13 mg/kg/injection, schedule: Q01DX009 (ip), vehicle: saline with Tween-80.
Setting [6] is: dose: 6.25 mg/kg/injection, schedule: Q01DX009 (ip), vehicle: saline with Tween-80.
Where [7] appears, read: dose: 12.5 mg/kg/injection, schedule: Q01DX009 (ip), vehicle: saline with Tween-80.
[8] abbreviates: dose: 25.0 mg/kg/injection, schedule: Q01DX009 (ip), vehicle: saline with Tween-80.
The mark [9] stands for this setting: dose: 50.0 mg/kg/injection, schedule: Q01DX009 (ip), vehicle: saline with Tween-80.
[10] abbreviates: dose: 60.0 mg/kg/injection, schedule: Q01DX005 (ip), vehicle: saline.
The mark [11] stands for this setting: dose: 120.0 mg/kg/injection, schedule: Q01DX005 (ip), vehicle: saline.
Where [12] appears, read: dose: 12.5 mg/kg/injection, schedule: Q01DX005 (ip), vehicle: Klucel (hydroxypropylcellulose) (HPC).
Where [13] appears, read: dose: 25.0 mg/kg/injection, schedule: Q01DX005 (ip), vehicle: Klucel (hydroxypropylcellulose) (HPC).
Where [14] appears, read: dose: 50.0 mg/kg/injection, schedule: Q01DX005 (ip), vehicle: Klucel (hydroxypropylcellulose) (HPC).
[15] abbreviates: dose: 50.0 mg/kg/injection, schedule: Q01DX009 (ip), vehicle: Klucel (hydroxypropylcellulose) (HPC).
Where [16] appears, read: dose: 100.0 mg/kg/injection, schedule: Q01DX009 (ip), vehicle: Klucel (hydroxypropylcellulose) (HPC).
Where [17] appears, read: dose: 200.0 mg/kg/injection, schedule: Q01DX009 (ip), vehicle: Klucel (hydroxypropylcellulose) (HPC).
[18] abbreviates: dose: 50.0 mg/kg/injection, schedule: Q01DX005 (ip), vehicle: saline with Tween-80.
Setting [19] is: dose: 100.0 mg/kg/injection, schedule: Q01DX005 (ip), vehicle: saline with Tween-80.
Where [20] appears, read: dose: 100.0 mg/kg/injection, schedule: Q01DX005 (ip), vehicle: Klucel (hydroxypropylcellulose) (HPC).

Where “and” joins values, the source holds several entries; their conditions need not be identical. Equal values may be shown once. Inconclusive results and toxic doses are left out.

On to `CC(=O)Oc1c(C)c(C)c2c(c1C)C(I)CC(C)(CCC(C)CCC(C)CCC(C)C)O2` (configuration not stated), for which the T/C is 103 % of control (dose: 12.5 mg/kg/injection, schedule: Q01DX009 (ip), vehicle: saline + Tween-80 + alcohol); 113 % of control (dose: 25.0 mg/kg/injection, schedule: Q01DX009 (ip), vehicle: saline + Tween-80 + alcohol); 107 % of control (dose: 50.0 mg/kg/injection, schedule: Q01DX009 (ip), vehicle: saline + Tween-80 + alcohol); 106 % of control (dose: 100.0 mg/kg/injection, schedule: Q01DX009 (ip), vehicle: saline + Tween-80 + alcohol); 119 % of control (dose: 200.0 mg/kg/injection, schedule: Q01DX009 (ip), vehicle: saline + Tween-80 + alcohol); 87 % of control (dose: 400.0 mg/kg/injection, schedule: Q01DX009 (ip), vehicle: saline + Tween-80 + alcohol).
Take `O=[N+]([O-])c1ccc(Nc2ccc[n+]3c([O-])csc23)nc1`: the T/C is 98 % of control under setting [1], 89 % of control under setting [2], 102 % of control under setting [3] and 93 % of control under setting [4].
Consider `CCN1CC2(C)CCC(OC)C34C1[C@H](C(=O)[C@@H]23)[C@]1(O)CC[C@H]2C[C@H]4[C@H]1C(=O)O2` (some centres not stated), for which the T/C was 95 % of control (dose: 1.0 mg/kg/injection, schedule: Q01DX009 (ip), vehicle: Klucel (hydroxypropylcellulose) (HPC)); 96 % of control (dose: 2.0 mg/kg/injection, schedule: Q01DX009 (ip), vehicle: Klucel (hydroxypropylcellulose) (HPC)); 98 % of control (dose: 4.0 mg/kg/injection, schedule: Q01DX009 (ip), vehicle: Klucel (hydroxypropylcellulose) (HPC)).
Take `c1ccc2c(NCCCNCCCNc3c4ccccc4nc4ccccc34)c3ccccc3nc2c1`: the T/C is, setting by setting: (dose: 0.63 mg/kg/injection, schedule: Q01DX009 (ip), vehicle: other) 112 % of control; (dose: 1.25 mg/kg/injection, schedule: Q01DX009 (ip), vehicle: other) 102 % of control and 118 % of control; (dose: 2.5 mg/kg/injection, schedule: Q01DX009 (ip), vehicle: other) 112 % of control; (dose: 5.0 mg/kg/injection, schedule: Q01DX009 (ip), vehicle: other) 118 % of control; (dose: 10.0 mg/kg/injection, schedule: Q01DX009 (ip), vehicle: other) 110 % of control.
For the molecule `CCOC(=O)C12C(C(=O)OC)=CC(=O)NC1(OCC)OC(C)C2C` (configuration not stated), the T/C reads like this: (dose: 50.0 mg/kg/injection, schedule: Q01DX001 (ip), vehicle: Klucel (hydroxypropylcellulose) (HPC)) 94 % of control; (dose: 100.0 mg/kg/injection, schedule: Q01DX001 (ip), vehicle: Klucel (hydroxypropylcellulose) (HPC)) 89 % of control; (dose: 200.0 mg/kg/injection, schedule: Q01DX001 (ip), vehicle: Klucel (hydroxypropylcellulose) (HPC)) 89 % of control.
With `CC1(C)N=C(N)N=C(N)N1c1cccc(CCCCOc2ccccc2)c1`, the T/C was 150 % of control under setting [5]; 150 % of control under setting [6]; 113 % of control (dose: 6.25 mg/kg/injection, schedule: Q04DX003 (ip), vehicle: saline with Tween-80); 154 % of control under setting [7]; 109 % of control (dose: 12.5 mg/kg/injection, schedule: Q04DX003 (ip), vehicle: saline with Tween-80); 95 % of control (dose: 18.0 mg/kg/injection, schedule: Q01DX009 (ip), vehicle: saline with Tween-80).
Take `CCOC(=O)/C=C(\C)SC1=CC(=O)c2ccccc2C1=O`: the T/C is 86 % of control under setting [5]; 94 % of control under setting [6]; 99 % of control and 122 % of control under setting [7]; 100 % of control and 111 % of control under setting [8]; 100 % of control and 107 % of control under setting [9].
For `O=C1C2CSCN2C(=O)CN1CCN1CCOCC1` (configuration not stated), the T/C is 100 % of control under setting [10]; 100 % of control under setting [11]; 100 % of control (dose: 240.0 mg/kg/injection, schedule: Q01DX005 (ip), vehicle: saline).
As to `CCN(CC)c1ccc(C(=N)c2ccc(N(C)C)cc2)cc1`, the T/C under setting [12] is 99 % of control; the T/C under setting [13] is 99 % of control; the T/C under setting [14] was 90 % of control and 92 % of control.
As for `CN(C)CC(O)c1cc2ccccc2c2ccccc12` (configuration not stated), the T/C by setting is: (dose: 12.5 mg/kg/injection, schedule: Q01DX009 (ip), vehicle: saline) 106 % of control; (dose: 25.0 mg/kg/injection, schedule: Q01DX009 (ip), vehicle: saline) 103 % of control; under setting [1], 100 % of control.
On to `N#Cc1ccc([N+](=O)[O-])o1`, for which the T/C is, setting by setting: under setting [7], 100 % of control; under setting [8], 90 % of control; under setting [9], 95 % of control.
On to `Clc1ccc(CN2Cc3ccc4cccnc4c3OC2c2ccccn2)cc1Cl` (configuration not stated), for which the T/C was 100 % of control under setting [15], 101 % of control under setting [16] and 101 % of control under setting [17].
As to `O=C(CCCCCCCC(=O)Nc1ccc2c(=O)c3ccccc3[nH]c2c1)Nc1ccc2c(=O)c3ccccc3[nH]c2c1`, the T/C is 103 % of control under setting [18]; 110 % of control under setting [19]; 92 % of control (dose: 200.0 mg/kg/injection, schedule: Q01DX005 (ip), vehicle: saline with Tween-80).
Turning to `CC1=NN(c2ccccc2)C(=O)C1N=Nc1cc(Cl)cc(S(=O)(=O)O)c1O` (configuration not stated), the T/C by setting is: under setting [1], 96 % of control; under setting [3], 97 % of control.
`CC1CCCC/C1=N/SC(c1ccccc1)(c1ccccc1)c1ccccc1` (configuration not stated): the T/C was 91 % of control (dose: 100.0 mg/kg/injection, schedule: Q01DX001 (ip), vehicle: saline with Tween-80); 89 % of control (dose: 200.0 mg/kg/injection, schedule: Q01DX001 (ip), vehicle: saline with Tween-80); 87 % of control (dose: 400.0 mg/kg/injection, schedule: Q01DX001 (ip), vehicle: saline with Tween-80).
On to `C=CCc1cccc2cc(C(=O)OCCCN(CC)CC)c(=O)oc12`, for which the T/C was 95 % of control under setting [18] and 99 % of control under setting [19].
As to `O=c1nc2n(CCO)c3ccccc3cc-2c(=O)[nH]1`, the T/C by setting is: under setting [10], 96 % of control; under setting [11], 95 % of control.
For the molecule `Cc1cc(-c2ccc(N3C(=O)CC4(CCCC4)C3=O)c(C)c2)ccc1N1C(=O)CC2(CCCC2)C1=O`, the T/C was 97 % of control under setting [15], 96 % of control under setting [16] and 96 % of control under setting [17].
As for `CCOc1cccc(/C=N/n2c(-c3ccccc3)nc3ccccc3c2=O)c1O`, the T/C reads like this: under setting [9], 99 % of control; under setting [2], 96 % of control; under setting [4], 105 % of control.
Turning to `CC[As](CCO)SC1CC(OC(=O)c2ccccc2)C(OC(=O)c2ccccc2)C(COC(=O)c2ccccc2)O1` (configuration not stated), the T/C reads like this: under setting [8], 110 % of control; (dose: 50.0 mg/kg/injection, schedule: Q01DX009 (ip), vehicle: saline + alcohol) 124 % of control; under setting [9], 96 % of control; under setting [2], 110 % of control.
Take `CC(=O)OC1CCC2(C)C(C1)CC(OC(C)=O)C1C2CC(OC(C)=O)C2(C)C(C(C)CC=C(c3ccccc3)c3ccccc3)CCC12` (configuration not stated): the T/C under setting [9] is 100 % of control, the T/C under setting [2] is 98 % of control and the T/C under setting [4] was 99 % of control.
`CCN(CC)CCN1CC(=O)N2CCCCN2C(=O)C1`: the T/C reads like this: (dose: 50.0 mg/kg/injection, schedule: Q01DX005 (ip), vehicle: saline) 104 % of control; (dose: 100.0 mg/kg/injection, schedule: Q01DX005 (ip), vehicle: saline) 102 % of control; (dose: 200.0 mg/kg/injection, schedule: Q01DX005 (ip), vehicle: saline) 95 % of control.
On to `CCCn1c(C)nc2c(N)cc(Cl)cc21`, for which the T/C runs as follows: under setting [12], 99 % of control; under setting [13], 95 % of control; under setting [14], 103 % of control; under setting [20], 105 % of control.
For the molecule `Clc1cccc(Cl)c1C(Nc1cnccn1)Nc1cnccn1`, the T/C is 101 % of control and 104 % of control under setting [13]; 101 % of control (2×) and 116 % of control under setting [14]; 106 % of control and 113 % of control under setting [20].

The values above are taken from PubChem BioAssay AID330 (DTP/NCI, 2004).
